Laboratory results: ChEMBL document CHEMBL1201862, “PubChem BioAssay data set” (2004)
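Five compound concentrations were applied to cells in 96-well plates for 48 hours; endpoints were derived by simple linear interpolation of the resulting dose-response curve. GI50: concentration for 50% inhibition of growth.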 Calls of active or inactive are those of the source. Rule as the data show it: active = GI50 up to about 1.1 µM and inactive = higher.

Assays:
Experiment in all cases: growth of human tumour cells (NCI), 48 h
786-0 = system: 786-0
A549 = system: A549
EKVX = system: EKVX
HL-60 = system: HL-60
HOP-92 = system: HOP-92
M14 = system: M14
MDA-N = system: MDA-N
NCI-H522 = system: NCI-H522
OVCAR-3 = system: OVCAR-3
OVCAR-5 = system: OVCAR-5
SF-295 = system: SF-295
SF-539 = system: SF-539
SK-MEL-28 = system: SK-MEL-28
SK-MEL-2 = system: SK-MEL-2
SK-MEL-5 = system: SK-MEL-5
SK-OV-3 = system: SK-OV-3
SNB-75 = system: SNB-75
TK-10 = system: TK-10
UACC-257 = system: UACC-257
SR = system: SR

Measured: GI50

Cc1ccc(-c2c(C#N)c(-c3ccc([N+](=O)[O-])cc3)c(C#N)c(=O)n2NS(=O)(=O)c2ccc(C)cc2)cc1
inactive: 786-0 65 µM | A549 51.9 µM | EKVX 47.5 µM | HL-60 31.3 µM | HOP-92 23.5 µM | M14 54.1 µM | MDA-N 75.9 µM | NCI-H522 31.8 µM | OVCAR-3 21.2 µM | OVCAR-5 > 100 µM | SF-295 40.9 µM | SF-539 38.1 µM | SK-MEL-28 52.8 µM | SK-MEL-2 62.4 µM | SK-MEL-5 19.8 µM | SK-OV-3 36.6 µM | SNB-75 74.5 µM | TK-10 51.3 µM | UACC-257 > 100 µM

CCc1n[nH]c(=O)n1CCO
inactive: 786-0 > 100 µM | A549 > 100 µM | EKVX > 100 µM | HL-60 > 100 µM | HOP-92 > 100 µM | M14 > 100 µM | MDA-N > 100 µM | OVCAR-3 > 100 µM | OVCAR-5 > 100 µM | SF-295 > 100 µM | SF-539 > 100 µM | SK-MEL-28 > 100 µM | SK-MEL-2 > 100 µM | SK-MEL-5 > 100 µM | SK-OV-3 > 100 µM | TK-10 > 100 µM | UACC-257 > 100 µM

COC(=NCCC1=CCCCC1)OC
inactive: 786-0 81.3 µM | A549 69.3 µM | EKVX 69 µM | HOP-92 31.6 µM | M14 21.1 µM | MDA-N 95.3 µM | NCI-H522 32.4 µM | OVCAR-3 > 100 µM | OVCAR-5 51.3 µM | SF-295 > 100 µM | SK-MEL-28 44.7 µM | SK-MEL-2 87.7 µM | SK-MEL-5 34.4 µM | SK-OV-3 > 100 µM | SNB-75 71.6 µM | TK-10 > 100 µM | UACC-257 39.3 µM

CN1N=C(c2ccncc2)OC1c1cccc(C(F)(F)F)c1 (centres undefined)
inactive: 786-0 > 100 µM | A549 > 100 µM | EKVX > 100 µM | HL-60 81.3 µM | M14 > 100 µM | MDA-N > 100 µM | NCI-H522 > 100 µM | OVCAR-3 71.1 µM | OVCAR-5 > 100 µM | SF-295 > 100 µM | SF-539 27.5 µM | SK-MEL-28 > 100 µM | SK-MEL-2 > 100 µM | SK-MEL-5 > 100 µM | SK-OV-3 > 100 µM | SNB-75 4.36 µM | TK-10 > 100 µM | UACC-257 > 100 µM

O=C(O)Cn1cc([N+](=O)[O-])c(=O)c2ccccc21
inactive: 786-0 > 100 µM | A549 > 100 µM | HL-60 > 100 µM | M14 > 100 µM | MDA-N > 100 µM | NCI-H522 > 100 µM | OVCAR-3 > 100 µM | OVCAR-5 > 100 µM | SF-295 > 100 µM | SF-539 > 100 µM | SK-MEL-28 > 100 µM | SK-MEL-2 > 100 µM | SK-MEL-5 > 100 µM | SK-OV-3 > 100 µM | SNB-75 > 100 µM | SR > 100 µM | TK-10 > 100 µM | UACC-257 > 100 µM

Clc1ccc(C(c2ccc(Cl)cc2)c2cncnc2)cc1
inactive: 786-0 17.3 µM | A549 20.5 µM | EKVX > 10 µM | HL-60 22.9 µM | M14 16.4 µM | MDA-N 14.2 µM | NCI-H522 17.2 µM | OVCAR-3 14.7 µM | OVCAR-5 15.6 µM | SF-295 17.9 µM | SK-MEL-28 18.5 µM | SK-MEL-5 13.2 µM | SK-OV-3 16 µM | SR 31.8 µM | TK-10 16.9 µM | UACC-257 19.3 µM

CNC(c1ccncc1)C(NC)c1ccncc1 (centres undefined)
inactive: 786-0 > 100 µM | A549 > 100 µM | EKVX > 100 µM | HL-60 > 100 µM | M14 > 100 µM | MDA-N > 100 µM | NCI-H522 > 100 µM | OVCAR-3 > 100 µM | OVCAR-5 > 100 µM | SF-295 > 100 µM | SK-MEL-28 > 100 µM | SK-MEL-2 > 100 µM | SK-MEL-5 > 100 µM | SK-OV-3 > 100 µM | SNB-75 > 100 µM | SR > 100 µM | TK-10 > 100 µM | UACC-257 > 100 µM

Oc1ccc(/C=N/c2nccs2)c(O)c1
inactive: 786-0 > 100 µM | A549 > 100 µM | EKVX > 100 µM | M14 > 100 µM | MDA-N > 100 µM | NCI-H522 > 100 µM | OVCAR-3 > 100 µM | OVCAR-5 > 100 µM | SF-295 > 100 µM | SF-539 > 100 µM | SK-MEL-5 > 100 µM | SK-OV-3 > 100 µM | SNB-75 > 100 µM | TK-10 > 100 µM | UACC-257 > 100 µM

CC(C)(Br)C(=O)C(Br)Br
inactive: 786-0 13.8 µM | A549 16.6 µM | EKVX 13.8 µM | HL-60 1.9 µM | HOP-92 1.7 µM | M14 2.44 µM | MDA-N 5.3 µM | NCI-H522 1.67 µM | OVCAR-3 6.89 µM | OVCAR-5 16.8 µM | SF-295 18.7 µM | SF-539 > 33.2 µM | SK-MEL-28 9.04 µM | SK-MEL-2 13 µM | SK-MEL-5 12.4 µM | SK-OV-3 17.5 µM | SNB-75 13.7 µM | TK-10 9.04 µM | UACC-257 9.84 µM

COc1cc(C)c(/C=C/C(=O)N2C(=O)OC[C@@H]2c2ccccc2)c(C)c1
inactive: 786-0 > 100 µM | A549 > 100 µM | EKVX 98.9 µM | HL-60 98.4 µM | HOP-92 > 100 µM | M14 > 100 µM | MDA-N > 100 µM | NCI-H522 > 100 µM | OVCAR-3 > 100 µM | OVCAR-5 > 100 µM | SF-295 > 100 µM | SF-539 > 100 µM | SK-MEL-28 > 100 µM | SK-MEL-2 > 100 µM | SK-MEL-5 60.8 µM | SK-OV-3 > 100 µM | SNB-75 34.3 µM | TK-10 > 100 µM | UACC-257 88.7 µM

N#CCN(CC#N)C1CC=CCC1N(CC#N)CC#N (centres undefined)
inactive: 786-0 > 100 µM | A549 > 100 µM | EKVX > 100 µM | HL-60 > 100 µM | HOP-92 > 100 µM | M14 > 100 µM | MDA-N > 100 µM | NCI-H522 > 100 µM | OVCAR-3 > 100 µM | OVCAR-5 > 100 µM | SF-295 > 100 µM | SF-539 > 100 µM | SK-MEL-2 > 100 µM | SK-MEL-5 > 100 µM | SK-OV-3 > 100 µM | TK-10 > 100 µM | UACC-257 > 100 µM

O=C1C=CC(=O)N1n1c(-c2ccccc2)n[nH]c1=O
inactive: 786-0 > 100 µM | A549 > 100 µM | EKVX > 100 µM | HL-60 > 100 µM | M14 > 100 µM | MDA-N > 100 µM | NCI-H522 > 100 µM | OVCAR-3 > 100 µM | OVCAR-5 > 100 µM | SF-295 > 100 µM | SF-539 > 100 µM | SK-MEL-2 > 100 µM | SK-MEL-5 > 100 µM | SK-OV-3 > 100 µM | SR > 100 µM | TK-10 > 100 µM | UACC-257 > 100 µM

CC(=O)NCC1OC2COC(c3ccccc3)OC2C(NC(=O)c2ccccc2)C1OC(=O)c1ccccc1 (centres undefined)
inactive: 786-0 > 100 µM | A549 > 100 µM | EKVX > 100 µM | HL-60 85.5 µM | HOP-92 > 100 µM | M14 > 100 µM | MDA-N > 100 µM | OVCAR-3 > 100 µM | OVCAR-5 > 100 µM | SF-295 > 100 µM | SF-539 > 100 µM | SK-MEL-28 > 100 µM | SK-MEL-2 > 100 µM | SK-MEL-5 > 100 µM | SK-OV-3 > 100 µM | SNB-75 > 100 µM | TK-10 > 100 µM | UACC-257 > 100 µM

[O-][n+]1cn[n+]([O-])c2ccccc21
inactive: 786-0 14.6 µM | A549 39.6 µM | EKVX 33 µM | HL-60 5.04 µM | M14 23.8 µM | MDA-N 20.1 µM | NCI-H522 15.1 µM | OVCAR-5 > 100 µM | SF-295 30.3 µM | SF-539 22.3 µM | SK-MEL-28 > 100 µM | SK-MEL-2 27.4 µM | SK-MEL-5 > 10 µM | SK-OV-3 27.3 µM | SNB-75 66.5 µM | SR 18.4 µM | TK-10 > 100 µM | UACC-257 16.9 µM

NC1=NS(=O)(=O)Nc2nc(-c3ccccc3)c(-c3ccccc3)nc21
inactive: 786-0 > 100 µM | A549 > 100 µM | EKVX > 100 µM | HL-60 > 100 µM | HOP-92 > 100 µM | M14 > 100 µM | NCI-H522 > 100 µM | OVCAR-3 > 100 µM | OVCAR-5 > 100 µM | SF-295 > 100 µM | SF-539 > 100 µM | SK-MEL-28 > 100 µM | SK-MEL-2 > 100 µM | SK-MEL-5 > 100 µM | SK-OV-3 > 100 µM | SNB-75 > 100 µM | SR > 100 µM | TK-10 > 100 µM | UACC-257 > 100 µM

COc1cc(CNc2cnc3cc(N)ccc3n2)cc(OC)c1OC
inactive: 786-0 43.7 µM | A549 44.6 µM | EKVX 76.7 µM | HL-60 7.21 µM | HOP-92 58.5 µM | M14 16.4 µM | NCI-H522 18.8 µM | OVCAR-3 12.6 µM | OVCAR-5 68.2 µM | SF-295 17.3 µM | SF-539 19.4 µM | SK-MEL-28 > 100 µM | SK-MEL-2 1.14 µM | SK-MEL-5 14.9 µM | SK-OV-3 20.7 µM | SNB-75 31.6 µM | SR 5.65 µM | TK-10 64.9 µM | UACC-257 > 100 µM
